The record followed here is patent publication US20250066341A1 (CHIESI FARMACEUTICI S.P.A., priority 2021, published 2025).

The term IC50 denotes the concentration needed to halve the response being measured.

The target of the experiment is T1, human recombinant LPA1 expressed in CHO cells (Homo sapiens, UniProt Q92633).
T1 construct: expressed in transfected cells; host or cells: CHO cells (CHO-hLPA1 cell line)
T1 sequence (Q92633 whole entry): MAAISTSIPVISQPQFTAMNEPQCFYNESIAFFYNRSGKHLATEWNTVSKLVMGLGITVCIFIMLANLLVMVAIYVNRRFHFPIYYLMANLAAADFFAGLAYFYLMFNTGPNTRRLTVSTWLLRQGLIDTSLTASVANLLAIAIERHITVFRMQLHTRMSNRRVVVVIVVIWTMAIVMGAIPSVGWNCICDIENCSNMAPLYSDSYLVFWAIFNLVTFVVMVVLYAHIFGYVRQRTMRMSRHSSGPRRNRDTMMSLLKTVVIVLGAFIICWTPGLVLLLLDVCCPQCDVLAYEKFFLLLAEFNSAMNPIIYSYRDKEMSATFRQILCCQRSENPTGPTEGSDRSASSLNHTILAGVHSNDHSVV
Briefly: FLIPR calcium mobilization assay, LPA1 antagonism in CHO-hLPA1 cells. The format is cell-based. The following applies: inhibition of LPA EC80 Ca2+ response, 30 min pre-incubation, expressed as range of activity. Here is the method: The effectiveness of compounds of the present invention as LPA1 antagonist can be determined at the human recombinant LPA1 expressed in CHO cells, using a FLIPR assay in 384 well format.
CHO-hLPA1 cell lines are cultured in a humidified incubator at 5% C02 in DMEM/F-12 (1:1) MIXTURE with 2 mM Glutamax, supplemented with 10% of Foetal Bovine Serum, 1 mM Sodium Pyruvate, 11 mM Hepes and 1× Penicillin/Streptomycin. […] Serial dilutions (1:3 or 1:4, 11 points CRC) of compounds are performed in 100% DMSO at 200× the final concentration. […] The final concentration of DMSO in the assay will be 0.5% in each well. Medium is removed by aspiration and cells are then incubated with 30 μl of a loading solution containing 5 μM of the cytoplasmic Ca2+ indicator Cal-520 AM in Assay Buffer containing 2.5 mM probenecid for 30 min at 37° C. incubator (cell loading). The loaded cell plates are transferred into the FLIPR instrument and calcium responses are monitored during the on-line addition protocols. For testing of compounds, after the cell loading, 10 μl/well of 4× antagonists' solution was added onto the cells. After 30 min pre-incubation (at 37° C.), 10 μl/well of 5× concentrated LPA EC80 was added and Ca2+ mobilization responses was followed during the on-line addition protocol. Intracellular peak fluorescence values subtracted by baseline fluorescence are exported and analysed to determine IC50 values, respectively. The calcium response is expressed as percentage of the maximal inhibition of the EC80 agonist response.
The raw data (peak height expressed as relative fluorescence units) are normalized and transformed into “percent of inhibition”. Curve fitting and pIC50 (−LogIC50) estimations are carried out using a four-parameter logistic model using XLfit Software.
(A change in cytosolic calcium serves as a functional read-out for many receptors and channels.)
With `Cc1noc(-c2ccc(NC(=O)C3CCCCC3C(=O)O)cc2)c1Nc1cncc(OC(C)C)n1` (racemic) [Compound 16, 2-((4-(4-((6-isopropoxypyrazin-2-yl)amino)-3-methylisoxazol-5-yl)phenyl)carbamoyl)cyclohexane-1-carboxylic acid], the IC50 was less than 50 nM.
Turning to `Cc1nc(-c2onc(C)c2NS(=O)(=O)CC(C)c2ccccc2)ccc1NC(=O)[C@H]1CCCC[C@@H]1C(=O)O` (mixture of isomers) [Compound 29, rac-(1S,2S)-2-((2-methyl-6-(3-methyl-4-((2-phenylpropyl)sulfonamido)isoxazol-5-yl)pyridin-3-yl)carbamoyl)cyclohexane-1-carboxylic acid], the IC50 was less than 50 nM.
In the case of `CC(C)Oc1cncc(Nc2c(-c3ccc(NC(=O)C4CCCCC4C(=O)O)cc3)nnn2C)n1` (racemic) [Compound 43, 2-((4-(5-((6-isopropoxypyrazin-2-yl)amino)-1-methyl-1H-1,2,3-triazol-4-yl)phenyl)carbamoyl)cyclohexane-1-carboxylic acid] it was 50 to 250 nM; in that of `Cc1nc(-c2onc(C)c2NS(=O)(=O)CC(C)c2ccccc2)ccc1NC(=O)[C@H]1CCCC[C@@H]1C(=O)O` (single isomer, unassigned) [Compound 30], less than 50 nM; in that of `Cc1noc(-c2ccc(OCC3CCCCC3C(=O)O)cn2)c1NC(=O)O[C@H](C)c1ccccc1Cl` (single isomer, unassigned) [Compound 81], less than 50 nM.
For `Cc1nc(-c2onc(C)c2Nc2cncc(OC3CC(F)(F)C3)n2)ccc1NC(=O)[C@H]1CCCC[C@@H]1C(=O)O` [Compound 3, (1S,2S)-2-((6-(4-((6-(3,3-difluorocyclobutoxy)pyrazin-2-yl)amino)-3-methylisoxazol-5-yl)-2-methylpyridin-3-yl)carbamoyl)cyclohexane-1-carboxylic acid] the value was 50 to 250 nM; for `Cc1nc(-c2onc(C)c2Nc2cncc(C(F)(F)F)n2)ccc1NC(=O)[C@H]1CCCC[C@@H]1C(=O)O` [Compound 4, (1S,2S)-2-((2-methyl-6-(3-methyl-4-((6-(trifluoromethyl)pyrazin-2-yl)amino)isoxazol-5-yl)pyridin-3-yl)carbamoyl)cyclohexane-1-carboxylic acid], 50 to 250 nM; for `CCCCNc1cncc(Nc2c(C)noc2-c2ccc(NC(=O)[C@H]3CCCC[C@@H]3C(=O)O)c(C)n2)n1` [Compound 5, (1S,2S)-2-((6-(4-((6-(butylamino)pyrazin-2-yl)amino)-3-methylisoxazol-5-yl)-2-methylpyridin-3-yl)carbamoyl)cyclohexane-1-carboxylic acid], 250 to 600 nM.
On to `Cc1nc(-c2onc(C)c2Nc2cncc(-c3ccccc3)n2)ccc1NC(=O)[C@H]1CCCC[C@@H]1C(=O)O` [Compound 6, (1S,2S)-2-((2-methyl-6-(3-methyl-4-((6-phenylpyrazin-2-yl)amino)isoxazol-5-yl)pyridin-3-yl)carbamoyl)cyclohexane-1-carboxylic acid], for which the half-maximal inhibitory concentration (IC50) was less than 50 nM.
As for `Cc1nc(-c2onc(C)c2Nc2cncc(-c3cccnc3)n2)ccc1NC(=O)[C@H]1CCCC[C@@H]1C(=O)O` [Compound 7, (1S,2S)-2-((2-methyl-6-(3-methyl-4-((6-(pyridin-3-yl)pyrazin-2-yl)amino)isoxazol-5-yl)pyridin-3-yl)carbamoyl)cyclohexane-1-carboxylic acid], the IC50 was in the range of 50 to 250 nM.
In the case of `Cc1nc(-c2onc(C)c2Nc2cncc(-c3ccncc3)n2)ccc1NC(=O)[C@H]1CCCC[C@@H]1C(=O)O` [Compound 8, (1S,2S)-2-((2-methyl-6-(3-methyl-4-((6-(pyridin-4-yl)pyrazin-2-yl)amino)isoxazol-5-yl)pyridin-3-yl)carbamoyl)cyclohexane-1-carboxylic acid] it was 50 to 250 nM; in that of `Cc1nc(-c2onc(C)c2Nc2cncc(C3=CCCCC3)n2)ccc1NC(=O)[C@H]1CCCC[C@@H]1C(=O)O` [Compound 10, (1S,2S)-2-((6-(4-((6-(cyclohex-1-en-1-yl)pyrazin-2-yl)amino)-3-methylisoxazol-5-yl)-2-methylpyridin-3-yl)carbamoyl)cyclohexane-1-carboxylic acid], less than 50 nM.
